# Like-named read-outs stand apart in the source and are kept apart here.
# Legend:
# Type in all cases: cell-based, human
# [1] = system: LoVo colon adenocarcinoma cells; experiment: MTS cytotoxicity assay, LoVo; settings: Homo sapiens
# Experimental: (§1) Therefore, the precursor acids 2a–c and corresponding pyrrolo[1,2-b]pyridazines 5a–c,f were tested for their potential cytotoxic activity. During the assays, increasing concentrations of the compounds, ranging from […], were added for 24 h or 48 h to cancer LoVo, SK-OV-3, MCF-7, and the reference HUVEC cells, previously cultured for 24 h in 96-well flat bottom plates. […] Then, MTS reagent was added, and cells were incubated for 4 h at 37 °C in a 5% CO2 humidified atmosphere. The absorbance values were spectrophotometrically read to a Dynex ELISA reader at λ = […].
# (§2) For the evaluation of the in vitro potential anti-proliferative effects of treatments with the new compounds under study against solid tumor-derived cells, several compound-mediated cytotoxicity assays were performed on three adherent tumor standardized cell lines, and normal human endothelial cells, used as control: the MCF-7 human breast adenocarcinoma and SK-OV-3 human ovary adenocarcinoma cell lines were provided from European Collection of Authenticated Cell Cultures (ECACC), while LoVo, human colorectal adenocarcinoma cell line, and HUVEC human umbilical vein endothelial cells were purchased from American Type Culture Collection (ATCC).
# (§3) Adherent cells were cultivated in DMEM/F12 medium added with 2 mM L-glutamine and 10% fetal bovine serum, 100 units/mL penicillin, 100 µg/mL streptomycin (Sigma Aldrich, St. Louis, MO, USA) and incubated at 37 °C in 5% CO2 humidified atmosphere. The stock solutions for cell treatments were prepared by dissolving the synthesized compounds in a minimum amount of DMSO. Working dilutions were prepared from the stock solutions in culture medium before each treatment assay. After 24 h, when cell cultures achieved around 70% confluence, treatments were applied for various periods of time with different concentrations of synthesized compounds or oncolytic drugs, used as positive controls.
# (§4) Therefore, cell cultures treated with the new compounds or oncolytic drugs for 24 h or 48 h were further subjected to a colorimetric cell viability method, the MTS assay. The absorbance of probes was read, data were calculated, and percentages of cell viability were assessed.
# (§5) The evaluation of the compound-induced cytotoxicity was made using the CellTiter 96 Aqueous One Solution Cell Proliferation Assay (Promega, Madison, WI, USA), a reagent that contains both MTS (3-(4,5-dimethylthiazol-2-yl)-5-(3-carboxymethoxyphenyl)-2-(4-sulfophenyl)-2H-tetrazolium, inner salt) and PES ([…], a cationic dye with high chemical stability that binds to MTS and forms a stable solution).
# (§6) Briefly, 1.5 × 10^4 cancer or normal cells were cultured in 100 µL/well for 24 h. After the culture supernatants were discarded, cells were treated for additional 24 h or 48 h with increasing concentrations of new compounds or oncolytic drugs. Following the specific treatments, in each well a volume of 20 µL of coloring mixture reagent of MTS and PES was added, and then the plates were incubated with mild agitation every 20 min for 4 h at 37 °C. The color developed during incubation was spectrophotometrically quantified at λ = 492 nm using a Dynex ELISA reader (DYNEX Technologies—MRS, Chantilly, VA, USA).
# (§7) Data were expressed as percentages of cell viability of the treated cells, and were calculated and compared to the untreated cells (considered 100% viable), using the formula:Cell viability (%) = (T − B)/(U − B) × 100 where T = absorbance of treated cells, U = absorbance of untreated cells, and B = absorbance of culture medium (blank), for λ = 492 nm.
# (§8) The cell viability data were expressed as the mean values ± standard deviations (SD) of three different experiments (n = 3). […] Moreover, a parallel experiment was performed in the absence of cells, with all the concentrations of the compounds being tested for their potential interference with MTS reagents; then, their absorbance values were extracted during calculations.
# [2] = system: MCF-7 breast adenocarcinoma cells; experiment: MTS cytotoxicity assay, MCF-7
# Experimental: as §1, §2, §3, §4
# as §5, with “solution). The assay is based on the ability of the metabolically active cells to reduce the yellow tetrazolium salt MTS to a compound that is soluble in culture medium, the colored formazan, followed by the spectrophotometric evaluation of its concentration.” for “solution).”
# as §6, §7
# The cell viability data were expressed as the mean values ± standard deviations (SD) of three different experiments (n = 3). […]
# [3] = system: SK-OV-3 ovary adenocarcinoma cells; experiment: MTS cytotoxicity assay, SK-OV-3; settings: Homo sapiens
# Experimental: as §1, §2, §3, §4, §5, §6, §7, §8
structure (smiles),measurement,setting,value
"CCOC(=O)c1cc(CC)n2nc(-c3ccc(F)cc3)ccc12 [Compound 5e, Ethyl 7-ethyl-2-(4-fluorophenyl)pyrrolo[1,2-b]pyridazine-5-carboxylate]",IC50,"[1]; 24 h, read-out: IC50 LoVo 24 h",≥ 400 µM
same,IC50,"[1]; 48 h, read-out: IC50 LoVo 48 h",≥ 400 µM
same,viability at 400 µM,"[2]; Homo sapiens, MCF7, MCF-7, 400 μM, 48 h, read-out: cell viability",73.1%
same,IC50,"[2]; Homo sapiens, MCF7, MCF-7, 24 h, read-out: IC50 MCF-7 24 h",≥ 400 µM
same,IC50,"[2]; Homo sapiens, MCF7, MCF-7, 48 h, read-out: IC50 MCF-7 48 h",≥ 400 µM
same,cell viability,"[2]; MCF-7, 100–400 μM, 48 h",less than 90%
same,IC50,"[3]; SK-OV-3, 24 h, read-out: IC50 Sk-OV-3 24 h",≥ 400 µM
same,IC50,"[3]; SK-OV-3, 48 h, read-out: IC50 Sk-OV-3 48 h",≥ 400 µM
